Experimental data reported in patent US10722582B2, “Targeted antimicrobial photodynamic therapy” (Purdue Research Foundation, priority 2018, dated 2020).

Assays:
Format in all cases: cell-based, Staphylococcus aureus
S. aureus (PCI 1203) [1] = experiment: Competitive hemin uptake assay (fluorescence microscopy); settings: for Fluorescence after 15 min / Fluorescence after 15 min exposure + 1 equiv. hemin: Fe-deficient conditions (TS media containing 3 mM bipy), no background subtraction; for effect of hemin competition on uptake: one equivalent of hemin, 15 minutes of co-incubation
Experimental: To elucidate the relevant structural features for the specific uptake of Ga-PpIX by S. aureus, we performed a competitive uptake assay using one equivalent of hemin against Ga-PpIX, PpIX, and eleven other fluorescent PpIX derivatives, with evaluation by fluorescence microscopy after 15 minutes of co-incubation (FIG. 5 and Table 4). These studies were partly guided by insights taken from the X-ray structures of hemin and Ga-PpIX within the binding pocket of IsdH: (i) coordination of the metal center by an apical tyrosine residue; (ii) the flanking of vinyl groups on pyrrole rings A and B against nearby aromatic residues; and (iii) the extension and presumed hydration of the propionyl groups (rings C and D) outside of the binding pocket.
Bacteria were cultured and assayed in iron-deficient media unless otherwise noted. A stock solution of Ga-PpIX (14.6 μM) was prepared by dispersing 5 mg in 1 mL of 10% DMSO in PBS for 10 minutes in an ultrasonic cleaning bath protected from light, followed by filtration and 10× dilution in PBS just prior to use. Bacterial suspensions (0.5 mL) were treated with freshly prepared solutions of PpIX derivatives for specified periods (5-15 min), then harvested by centrifugation at 5.2 g for 5 minutes, redispersed twice in 0.5 mL deionized water, and centrifuged a third time. A 10-μL aliquot of concentrated bacteria was deposited onto a glass slide and dried in air for 20 min, then imaged by fluorescence microscopy as described above. For details on fluorescence image processing and quantitative analysis, see Supporting Information.
S. aureus (PCI 1203; ATCC 10537) was first cultured in standard TS broth, then in media containing 3 mM bipyridine. Bacteria were pelleted and washed with PBS buffer three times, then resuspended to a final concentration of 10^8 cfu/mL. Stock solutions of hemin and PpIX derivatives 1-13 were prepared at initial concentrations of 292 μM; hemin and fluorescent PpIX solutions were mixed in a 1:1 ratio (0.5 mL), then added to 0.5 mL of bacterial suspension and allowed to sit for 15 min at room temperature. For control studies, hemin or fluorophore solutions were substituted with PBS to maintain constant […]. Bacteria were harvested and washed as described above, then evaluated by fluorescence microscopy for relative uptake efficiency.
Darkfield and fluorescent images were acquired in succession, with the former used to map regions of interest (ROIs) by tracing the outlines of bacteria (FIG. 8). Three images were acquired for each sample; in each case, the tracing map was overlaid onto the fluorescence image to calculate pixel intensities within each ROI, using the mean pixel intensity for quantitative analysis. Bacteria were also imaged without treatment with PpIX analogs, most of which produced values close to that of background except for Salmonella enterica, which served as the upper limit of autofluorescence (cf. FIG. 4). Data collection and image analyses were performed by the same user to ensure consistency for comparative analysis.

[2] = system: S. aureus (PCI 1203; ATCC 10537); experiment: aPDI with CFL irradiation (406 nm), planktonic bacteria, drop-plate colony count; settings: for potency relative to dark toxicity (0 min exposure): 3-log reduction
Experimental: The aPDI properties of Ga-PpIX were compared against PpIX, whose photosensitizer activities are well known and whose optical profile is similar to that of Ga-PpIX (FIG. 2).
All bacterial strains were cultured at 37° C. in an aerobic atmosphere unless otherwise noted. […] Bacterial counts were estimated in units of cfu/mL by plating serial dilutions onto agar plates, followed by incubation for 16 hours at 37° C. […] Further details and variations on iron-deficient culture conditions are provided in Supporting Information.
Antimicrobial assays were performed on planktonic bacteria at 10^7 cfu/mL with variable exposure times to CFL irradiation, followed by plating on agar and incubation at 37° C. […] The irradiated bacteria were plated onto agar in serial tenfold dilutions (10^7-10^1 cfu/mL); controls included one set of wells without photosensitizer, and one set of wells with photosensitizer but without 15 min irradiation, prior to plating (dark toxicity). Bacterial counts were determined by the drop-plate method using TS-agar plates, and reported in colony-forming units per milliliter (cfu/mL).
The irradiation source consisted of a 20-W compact fluorescent lightbulb (CFL; Sunlite SL20/BLB) housed in an ellipsoidal reflector dome.

S. aureus [3] = experiment: Antibacterial activity assay with LED light
Experimental: (§1) Antibacterial activity assay general protocol: Used LED light to test conditions. Bacteria were grown in TS broth, followed by 3 mM bipyridine in TS broth until log phase. Bacteria were then diluted with PBS, to OD 0.1 (˜10^) and then to ˜10^7 cfu/mL. 100 uL of bacteria were placed in 96 well plates with the appropriate GaPpIX concentration. 2× serial dilutions were then done to obtain other GaPpIX concentrations. Each concentration was done in triplicate. Bacteria were left incubating and irradiating for different amount of times at different light powers or left in the dark. 10× Serial dilutions were done and bacteria were plated for colony counting using the drop-plate technique. Colonies were counted after 24 hours. As reported herein, a 3-log reduction equals measurable antimicrobial action; a 6-log reduction equals total eradication.
(§2) Stock solution preparation (AVM-3-36, 10 nm AgNP). Prepared a solution of (AVM-2-273) GaPpIX-apoHb 1 mg/mL in MP H2O, deaerated. Took 10 mL of 10 nm AgNPs, centrifuged at 900 G for 5 min (Beckman, 3100 RPM), took supernantant and added 200 uL of GaPpIXHb. After overnight, centrifuged 3000 RPM g for 5 minutes (Beckman). Took supernantant and centrifuged using a 100 K CentriCon tube at 4000 RPM for 5 minutes, 3×. Added 15 mM borate buffer to NPs. Based on calibration curve, the stock solution is 1.94 ug/mL AgNP, so stock: 79 μg/mL AgNP, 10.37 μg/mL GaPpIXHb, 0.446 μg/mL GaPpIX (refer to AVM-2-293A and AVM-3-3).
(§3) The following antibacterial activity measurements were assayed in the presence of AgNP.

MRSA383 = experiment: Antibacterial activity assay with LED light; settings: in the presence of 10 nm AgNP
Experimental: as §1, §2, §3

MRSA385 = experiment: Antibacterial activity assay with LED light; settings: in the presence of 10 nm AgNP
Experimental: as §1, §2, §3

MRSA386 = experiment: Antibacterial activity assay with LED light; settings: in the presence of 10 nm AgNP
Experimental: as §1, §2, §3

MRSA387 = experiment: Antibacterial activity assay with LED light; settings: in the presence of 10 nm AgNP
Experimental: as §1, §2, §3

S. aureus [4] = experiment: aPDI with 405-nm LED bar, summary over strains; settings: Ga-hemoglobin on 10-nm AgNP, 405-nm light, fluence about 1 J/cm^2
Experimental: as §1

S. aureus (PCI 1203) [5] = experiment: Competitive hemin uptake assay (fluorescence microscopy); settings: standard conditions (TS media); no background subtraction

Row | Compound | Fluorescence after 15 min (S. aureus (PCI 1203) [1]) | Fluorescence after 15 min exposure + 1 equiv. hemin (S. aureus (PCI 1203) [1]) | effect of hemin competition on uptake (S. aureus (PCI 1203) [1]) | also measured
1 | 3,8-Diacetyldeuteroporphyrin dimethyl diester [DiAcDP diMe (12)] | 20.9 a.u. | 18.05 a.u. | less affected by hemin | 
2 | CC1=C(CCC(=O)O)c2cc3[nH]c(cc4nc(cc5[nH]c(cc1n2)c(C)c5C(C)O)C(C)=C4C(C)O)c(C)c3CCC(=O)O (stereo not drawn) [HP (4), hematoporphyrin] | 14.38 a.u. | 9.58 a.u. |  | 
3 | COC(=O)CCc1c(C)c2cc3nc(cc4nc(cc5[nH]c(cc1[nH]2)c(CCC(=O)OC)c5C)C(C(C)O)=C4C)C(C(C)O)=C3C (stereo not drawn) [HP diMe (8), HP dimethyl diester] | 29.05 a.u. | 26.9 a.u. |  | 
4 | C=CC1=C(C)c2cc3[nH]c(cc4[nH]c(cc5nc(cc1n2)C(C)=C5C=C)c(C)c4CCC(=O)OC)c(CCC(=O)OC)c3C [PpIX diMe (7), PpIX dimethyl diester] | 15.75 a.u. | 12.75 a.u. |  | 
5 | C[n+]1ccc(-c2c3nc(c(-c4cc[n+](C)cc4)c4ccc([nH]4)c(-c4cc[n+](C)cc4)c4nc(c(-c5cc[n+](C)cc5)c5ccc2[nH]5)C=C4)C=C3)cc1 [TMPyP, reference compound] |  |  |  | Antimicrobial activity (minimum 3-log CFU reduction) ([2]; 0 min (dark), no irradiation (dark toxicity)): < 7.4 μM; Antimicrobial activity (minimum 3-log CFU reduction) ([2]; 0 min (dark), no irradiation (dark toxicity), listed as TMPy): <7.4 μM; Antimicrobial activity (minimum 3-log CFU reduction) ([2]; 5 min CFL 406 nm, 12.4 mW/cm^2 (3.7 J/cm^2)): 0.92 μM; potency relative to dark toxicity (0 min exposure) ([2]; 5 min CFL): <8x; Antimicrobial activity (minimum 3-log CFU reduction) ([2]; 15 min CFL 406 nm, 12.4 mW/cm^2 (11.2 J/cm^2)): 0.23 μM; potency relative to dark toxicity (0 min exposure) ([2]; 15 min CFL): <32x; concentration for 3-log reduction (measurable antimicrobial action) (S. aureus [3]): 235 nM; concentration for 6-log reduction (total eradication) (S. aureus [3]): 940 nM
6 | C=CC1=C(C)c2cc3[n-]c(cc4nc(cc5[n-]c(cc1n2)c(C)c5C=C)C(C)=C4CCC(=O)O)c(CCC(=O)O)c3C.[Zn+2] [Zn-PpIX (3), Zn-PpIX] | 31.45 a.u. | 16.87 a.u. | moderately affected by hemin | 
7 | C=CC1=C(C)c2cc3[n-]c(cc4[n-]c(cc5nc(cc1n2)C(C)=C5C=C)c(C)c4CCC(=O)O)c(CCC(=O)O)c3C.[Cl-].[Fe+3] [hemin, Fe(III)-protoporphyrin IX, reference compound] | 2.55 a.u. |  |  | 
8 | Ga(III) diacetyldeuteroporphyrin (diAcDP) dimethyl diester [Ga-DiAcDP diMe (11)] | 12.27 a.u. | 11.85 a.u. | less affected by hemin | 
9 | Ga(III)-PpIX dimethyl diester [Ga-PpIX diMe (6)] | 60.55 a.u. | 33.95 a.u. |  | 
10 | GaPpIX/10 nm HbAgNP: GaPpIX added to apohemoglobin (Ga-hemoglobin) adsorbed onto 10-nm Ag nanoparticles |  |  |  | concentration for 3-log reduction (MRSA383): 27 nM; concentration for 6-log reduction (MRSA383): 79 nM; concentration for 3-log reduction (MRSA385): 27 nM; concentration for 6-log reduction (MRSA385): 109 nM; concentration for 3-log reduction (MRSA386): 79 nM; concentration for 6-log reduction (MRSA386): 158 nM; concentration for 3-log reduction (MRSA387): 43 nM; concentration for 6-log reduction (MRSA387): 218 nM; concentration for 3-log reduction (S. aureus [3]; in the presence of 10 nm AgNP): 22 nM; concentration for 6-log reduction (S. aureus [3]; in the presence of 10 nm AgNP): 27 nM; GaPpIX effective concentration (aPDI) (S. aureus [4]): 0.022 to 0.080 µM
11 | Verteporfin [Verteporfin (13), reference compound] | 30.75 a.u. | 28 a.u. | less affected by hemin | Fluorescence after 15 min (S. aureus (PCI 1203) [5]): 25.82 a.u.; Fluorescence after 15 min exposure + 1 equiv. hemin (S. aureus (PCI 1203) [5]): 23.72 a.u.
12 | Zn-HP [Zn-HP (5)] | 29.2 a.u. | 14.52 a.u. | moderately affected by hemin | 
13 | di-O-acetyl-HP dimethyl diester [DiAcHP diMe (9)] | 21.6 a.u. | 18.95 a.u. | less affected by hemin | 
14 | di-O-succinyl-HP dimethyl diester [DiSuccHP diMe (10)] | 19.37 a.u. | 16.9 a.u. | less affected by hemin | 
